Experimental data as given in PubChem BioAssay AID608 (Sanford-Burnham Center for Chemical Genomics, 2007).
pKd: −log10 of the molar value. Activity calls are given as the source filed them. How the calls were made is not given here.

Target: Peptidyl-prolyl cis-trans isomerase FKBP1A (Homo sapiens) (UniProt P62942)
Experiment: small-molecule binding to FKBP12 – biophysical, NMR detection (AID 608)
Details: purified FKBP12

Peptidyl-prolyl cis-trans isomerase FKBP1A (Homo sapiens), sequence (P62942 whole entry, looked up): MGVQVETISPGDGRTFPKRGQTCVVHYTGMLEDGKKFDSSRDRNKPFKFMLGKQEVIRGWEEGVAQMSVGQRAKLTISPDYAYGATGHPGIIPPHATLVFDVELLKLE

| SMILES | Kd | pKd |
| --- | --- | --- |
| COC(=O)C[C@H]1C2(C)CC34OC5(C)O[C@@]6([C@H](OC)C(OC(=O)C(C)C)[C@]7(C)C(/C(=C(/OC)C(C)C)C(=O)O[C@H]7c7ccoc7)[C@@]6(O5)[C@H](OC)[C@@]3(OC)C2OC(C)=O)[C@]14C (stereo partly drawn) | > 4 mM (inactive) | – |
| Nc1ncnc(Cl)c1[N+](=O)[O-] | > 4 mM (inactive) | – |
| COc1nc(N2CCOCC2)nc(N)c1[N+](=O)[O-] | > 4 mM (inactive) | – |
| O=C(c1ccco1)N1CCNCC1 | > 4 mM (inactive) | – |
| Cc1nnsc1C(=O)O | > 4 mM (inactive) | – |
| O=C(Nc1nncs1)C1(c2ccccc2)CCCC1 | > 4 mM (inactive) | – |
| OCC1CCCC1O (stereo not drawn) | > 4 mM (inactive) | – |
| Brc1ccc(-c2nc(-c3ccncc3)no2)o1 | > 4 mM (inactive) | – |
| CC(=O)Oc1c(-c2ccccc2)oc2c(CC=C(C)C)c3c(c(OC(C)=O)c2c1=O)C=CC(C)(C)O3 | > 4 mM (inactive) | – |
| O=C1c2ccncc2C(=O)N1CO | > 4 mM (inactive) | – |
| O=C(O)Cc1nc(-c2ccncc2)n[nH]1 | > 4 mM (inactive) | – |
| CCOc1ccc(C(=O)c2ccc(O)c(O)c2O)cc1 | > 4 mM (inactive) | – |
| OCc1cc(F)cc2c1OCOC2 | > 4 mM (inactive) | – |
| COc1ccccc1-c1nc(=S)[nH][nH]1 | > 4 mM (inactive) | – |
| O=C(Nc1nncs1)c1c(F)c(F)c(F)c(F)c1F | > 4 mM (inactive) | – |
| Nc1cccc2cccnc12 | > 4 mM (inactive) | – |
| CC1(C)C=Cc2c(cc3occ(-c4ccc5c(c4)OCO5)c(=O)c3c2O)O1 | > 4 mM (inactive) | – |
| Cc1nc(-c2ccccc2)sc1CO | > 4 mM (inactive) | – |
| NC(=O)c1ccc2c(c1)OCO2 | > 4 mM (inactive) | – |
| C/C=C/COc1nc2c(c(=O)n(C)c(=O)n2C)n1C | > 4 mM (inactive) | – |
| COc1cc2cc3c4cc(OC)c(OC)cc4cc[n+]3c(C)c2cc1OC | > 4 mM (inactive) | – |
| COC(=O)CCC(C)C1CCC2C3CCC4C[C@H](O)CC[C@]4(C)C3C[C@H](O)[C@]12C (stereo partly drawn) | > 4 mM (inactive) | – |
| O=C(NC1CCS(=O)(=O)C1)c1cccs1 (stereo not drawn) | > 4 mM (inactive) | – |
| CCOC(=O)CSc1nnc(C)c(=O)[nH]1 | > 4 mM (inactive) | – |
| NCc1n[nH]c(=O)c2ccccc12 | > 4 mM (inactive) | – |

| SMILES | Kd | pKd |
| --- | --- | --- |
| CC1=NNC(=O)C1CCc1ccncc1 (stereo not drawn) | > 4 mM (inactive) | – |
| Cc1c(F)cccc1NS(=O)(=O)c1ccccc1C#N | > 4 mM (inactive) | – |
| CC1=C(/C=C/C(C)=C/C=C/C(C)=C/C=C/C=C(C)/C=C/C=C(C)/C=C/C(=O)[C@]2(C)C[C@@H](O)CC2(C)C)C(C)(C)C[C@H](O)C1 | > 4 mM (inactive) | – |
| Cc1cc(C(=O)NCc2cccnc2)no1 | > 4 mM (inactive) | – |
| Cc1ccc2nc(NC(=O)CN3CCOCC3)sc2c1 | > 4 mM (inactive) | – |
| Cc1nnc(SCC(N)=O)c2ccccc12 | > 4 mM (inactive) | – |
| Cc1cccnc1NC1=NCC(C)S1 (stereo not drawn) | > 4 mM (inactive) | – |
| CC(C)(O)P(C)(=O)c1ccccc1 (stereo not drawn) | > 4 mM (inactive) | – |
| O=C1C=C(O)c2ccccc2C1=O | > 4 mM (inactive) | – |
| COc1cc(OC)c2c(=O)c(-c3ccc4c(c3)OCO4)coc2c1 | > 4 mM (inactive) | – |
| CNC(Cc1c[nH]c2ccccc12)C(=O)O (stereo not drawn) | > 4 mM (inactive) | – |
| Cc1ccc2nc(SCCC#N)nc(C)c2c1 | > 4 mM (inactive) | – |
| CC1(C)Cn2c(nnc2-c2ccccc2)S1 | > 4 mM (inactive) | – |
| O=C1NC(=O)C(Cc2ccccc2)C(=O)N1 | > 4 mM (inactive) | – |
| O=C1NC(=O)C(Cc2cccs2)C(=O)N1 | > 4 mM (inactive) | – |
| COc1cc2ccc(=O)oc2c2ccoc12 | > 4 mM (inactive) | – |
| CN1C(=O)C2C=CC1C1C(=O)N(c3ccccc3)C(=O)C21 (stereo not drawn) | > 4 mM (inactive) | – |
| Cc1nn(C)c2sc(C(=O)O)cc12 | > 4 mM (inactive) | – |
| Nc1cccc(C(=O)Nc2ccc(N)cc2Cl)c1 | > 4 mM (inactive) | – |
| OCc1ncoc1-c1ccccc1 | > 4 mM (inactive) | – |
| CCCCCCCCCCCCCCC(C(=O)O)C(O)(CC(=O)OC)C(=O)O (stereo not drawn) | > 4 mM (inactive) | – |
| Cc1cc(C)n(-c2cccc3cccnc23)n1 | > 4 mM (inactive) | – |
| O=C1CC(=O)N2N=C(c3ccccc3)SC2=N1 | > 4 mM (inactive) | – |
| CC(=O)OC/C=C(\C)CC/C=C(\C)CC/C=C(\C)CC/C=C(\C)CC/C=C(\C)CC/C=C(\C)CC/C=C(\C)CC/C=C(\C)CCC=C(C)C | > 4 mM (inactive) | – |
| O=S1(=O)CCC(NC(=S)Nc2ccccc2)C1 (stereo not drawn) | > 4 mM (inactive) | – |

| SMILES | Kd | pKd |
| --- | --- | --- |
| O=C(O)c1cccnc1Oc1ccccc1 | > 4 mM (inactive) | – |
| N#CCSc1nc2ccccc2c(=O)n1-c1ccccc1 | > 4 mM (inactive) | – |
| O=C(NCO)c1ccccc1Cl | > 4 mM (inactive) | – |
| Cn1c(=O)cc(O)c2ccccc21 | > 4 mM (inactive) | – |
| Cc1nc(-c2ccc(C(=O)O)s2)cs1 | > 4 mM (inactive) | – |
| CC(=O)Cc1nsc(NC(=O)c2ccc(C)cc2)n1 | > 4 mM (inactive) | – |
| N[C@@H](Cc1cc(I)c(Oc2cc(I)c(O)c(I)c2)c(I)c1)C(=O)O | > 4 mM (inactive) | – |
| Cc1cccc(CO)n1 | > 4 mM (inactive) | – |
| CC(=O)NCC1OCCc2ccccc21 (stereo not drawn) | > 4 mM (inactive) | – |
| CCOc1ccc2ccccc2c1C(=O)N1CCOCC1 | > 4 mM (inactive) | – |
| O=C1CCCC(=O)N1Cc1ccco1 | > 4 mM (inactive) | – |
| COc1ccc(C2(C)CC(=O)NC2=O)cc1 (stereo not drawn) | > 4 mM (inactive) | – |
| O=C1NC(=S)N/C1=C\c1ccccc1 | > 4 mM (inactive) | – |
| O=C(NCc1ccccc1F)c1cccs1 | > 4 mM (inactive) | – |
| c1ccc(-n2ncc3c(NCc4ccco4)ncnc32)cc1 | > 4 mM (inactive) | – |
| COc1ccc(C(=O)NC2=NCCS2)cc1OC | > 4 mM (inactive) | – |
| COC(=O)c1cccc(C(F)(F)F)c1 | > 4 mM (inactive) | – |
| O=c1ccc2cc(O)c(O)cc2o1 | > 4 mM (inactive) | – |
| Cc1ccc(NS(=O)(=O)N2CCOCC2)cc1 | inactive | – |
| O=C1C=C(Nc2ccc(O)cc2)c2ccccc2C1=O | > 4 mM (inactive) | – |
| COc1ccc(NC(=O)/C=N/O)cc1 | > 4 mM (inactive) | – |
| CNC(C)[C@H](O)c1ccccc1 (stereo partly drawn) | > 4 mM (inactive) | – |
| COc1ccc(NC(=O)c2ccc[n+]([O-])c2)cc1 | > 4 mM (inactive) | – |
| COc1cc(OC)c2c(=O)c(O)c(-c3ccc(OC)c(OC)c3)oc2c1 | > 4 mM (inactive) | – |
| COc1cc(O)c2c(c1)C(=O)c1cc(C)cc(O)c1C2=O | > 4 mM (inactive) | – |

| SMILES | Kd | pKd |
| --- | --- | --- |
| O=C(c1ccc(N2CCNCC2)cc1)c1cccnc1 | > 4 mM (inactive) | – |
| COc1cc(O)c2c(=O)c(O)c(-c3ccc(O)c(O)c3)oc2c1 | > 4 mM (inactive) | – |
| OCC1=Cc2ccccc2OC1 | > 4 mM (inactive) | – |
| COc1ccc(C2NC(C(=O)O)CS2)cc1 (stereo not drawn) | > 4 mM (inactive) | – |
| Cc1cc(O)cc(=O)o1 | > 4 mM (inactive) | – |
| Oc1ccc(-n2ccnc2)cc1 | > 4 mM (inactive) | – |
| Cc1cc(Cl)ccc1OCC(=O)N1CCOCC1 | inactive | – |
| CC(NC(=O)C1CCCCC1)C(=O)NC1=NCCS1 (stereo not drawn) | > 4 mM (inactive) | – |
| O=C(Cc1c(F)cccc1Cl)Nc1ccon1 | > 4 mM (inactive) | – |
| NC(=O)CSc1nc2ccccc2[nH]1 | > 4 mM (inactive) | – |
| Cn1c(=O)n(CC(=O)N2CCOCC2)c2ccccc21 | > 4 mM (inactive) | – |
| CC(=O)Nc1nnc(-c2ccccc2)o1 | > 4 mM (inactive) | – |
| Cc1cc(=O)cc(C)n1-c1ccccc1N | > 4 mM (inactive) | – |
| CC(=O)c1cc(C(N)=O)c(=S)[nH]c1C | > 4 mM (inactive) | – |
| CCOC(=O)c1c(C)nc2sccn12 | > 4 mM (inactive) | – |
| CC(C)[C@@H]1CC[C@@H](C)CC1=O | > 4 mM (inactive) | – |
| Cn1nnc2cc(CN)ccc21 | > 4 mM (inactive) | – |
| O=C(c1sc2cccc(Cl)c2c1Cl)N1CCOCC1 | inactive | – |
| CC(=O)/C=C\[C@@H]1[C@@]2(C)CCCC(C)(C)C2CC[C@@]1(C)O (stereo partly drawn) | > 4 mM (inactive) | – |
| CNC(=O)C1COc2ccccc2O1 (stereo not drawn) | > 4 mM (inactive) | – |
| COc1ccc(C2(CN)CCOCC2)cc1OC | > 4 mM (inactive) | – |
| COC(=O)c1scc(S(C)(=O)=O)c1-n1cccc1 | > 4 mM (inactive) | – |
| O=C(O)CCCN1CNC(=S)NC1 | > 4 mM (inactive) | – |
| Cn1c(=O)[nH]c(=O)c2c1ncn2CCN1CCCCC1 | > 4 mM (inactive) | – |
| CC1(C)CC(=O)c2sc(N)nc2C1 | > 4 mM (inactive) | – |

| SMILES | Kd | pKd |
| --- | --- | --- |
| O=C(Nc1nncs1)Oc1ccccc1 | > 4 mM (inactive) | – |
| CCS(=O)(=O)N1CCN(c2ccccc2F)CC1 | > 4 mM (inactive) | – |
| CC(C)CNc1cc(=O)n(C)c(=O)n1C | > 4 mM (inactive) | – |
| CCOC(=O)C1C(C=C(C)C)C1(C)C (stereo not drawn) | > 4 mM (inactive) | – |
| Cc1nccc(-c2cccc(N)c2)n1 | > 4 mM (inactive) | – |
| OCC1COc2ccccc2C1 (stereo not drawn) | > 4 mM (inactive) | – |
| CC1(C)Cc2nc3n[nH]c(N)c3cc2CO1 | > 4 mM (inactive) | – |
| Cc1cc(OCC(=O)N2CCOCC2)c(C(C)C)cc1Cl | inactive | – |
| CCSc1nc2ccccc2[nH]1 | > 4 mM (inactive) | – |
| N#Cc1c[nH]n2c(=O)cc(Cc3ccccc3)nc12 | > 4 mM (inactive) | – |
| O=c1[nH]cc(S(=O)(=O)N2CCc3ccccc32)c(=O)[nH]1 | > 4 mM (inactive) | – |
| O=C(NC1=NCCS1)c1csc2ccccc12 | > 4 mM (inactive) | – |
| CC(C)c1ccc(SCC(=O)N2CCOCC2C(=O)O)cc1 (stereo not drawn) | – | 3.37 |
| Cc1ccc(-c2c(C)n([O-])c3c([n+]2=O)CCCC3)o1 | > 4 mM (inactive) | – |
| O=c1oc2ccccc2cc1O | > 4 mM (inactive) | – |
| Cc1ccc(/C=N/NC(N)=O)o1 | > 4 mM (inactive) | – |
| O=C(c1ccccc1)c1ccccc1C(=O)N1CCCC1 | > 4 mM (inactive) | – |
| Cn1nnc2cc(C(=O)NC3=NCCS3)ccc21 | > 4 mM (inactive) | – |
| CC(=O)c1cccc(N=C2NC(=O)CS2)c1 | > 4 mM (inactive) | – |
| COC(=O)c1c[nH]c2ccccc12 | > 4 mM (inactive) | – |
| C(=C\c1ccccc1)/C=N/n1cnnc1 | > 4 mM (inactive) | – |
| CN(C)CC(O)C1CCOC(C)(C)C1 (stereo not drawn) | > 4 mM (inactive) | – |
| Cc1cc(C(=O)N2CCN(S(C)(=O)=O)CC2)cs1 | > 4 mM (inactive) | – |
